System: EAE mice
Assay: Clinical scoring of MOG-induced EAE in mice
Type: in vivo, C57BL/6N female mice
Settings: 10 mg/kg p.o., day 1 to day 28, positive control, FIG. 10
Description: C57BL/6N female mice, 7-9 weeks old, were used. Animals were housed and maintained in compliance with the regulations.
On Day 0, mice were grouped randomly by body weight, and then injected subcutaneously with 200 μg of myelin oligodendrocyte glycoprotein (MOG) peptide in complete Freund's adjuvant (CFA) into the right and left flank, 100 μl per site. Pertussis toxin (PTX) injected by i.p at 0 and 48 hours after MOG immunization. Compounds were given from day 1 to day 28 according to Table 2. The animals (n=10) were scored daily for clinical signs of EAE. At the end of the experiments, spinal cords were used for HE staining (n=5), and analysis of TNF-α, IL-17, IFN-γ by Elisa kit.
The animals were scored daily for clinical signs of EAE according to the Clinical scoring rubric for EAE (Table 3).

C[C@]12C=CC(=O)C=C1CC[C@@H]1[C@@H]2C(=O)C[C@@]2(C)[C@H]1CC[C@]2(O)C(=O)CO [prednisone, Prednisone]
clinical signs of EAE (clinical score): significantly reduced clinical signs of EAE from day 13th

— patent US20220401573A1, “COMPOSITION AND METHOD FOR TREATMENT OF MULTIPLE SCLEROSIS” (Wuhan Vast Conduct Science Foundation CO., LTD., priority 2019, published 2022)
